Experimental findings from paper PMC7497692 (Investigational New Drugs, 2020) are described below.

The nature of data set [1]: Metabolite profiling and identification in plasma, urine and feces (part A). The format is in vivo, human healthy male volunteers. The settings on record: male, human, in vivo; for half-life: apparent t½ of metabolite in plasma; for tmax: tmax of metabolite in plasma. On the procedure:
Participants were hospitalized from day 1 to day 16 of the study, and further assessed on days 19, 22, and 25 (trial end). […] Pre-dose feces and urine samples were collected on day 1 and day 2, respectively. Urine was collected at 4- to 12-h intervals on day 1 and every 24 h thereafter up to day 16. Feces were collected every 24 h up to day 16. Provision was made to collect further samples up to day 39 if >1% of the administered dose was detectable in the total (urine and feces) excreta per day on two consecutive measurements.
Metabolite profiling and structure elucidation in plasma, urine, and feces were performed at the Institute of Drug Metabolism and Pharmacokinetics, Merck KGaA, Grafing, Germany, using a radiometric UPLC method coupled to a high-resolution MS. For urine and feces, metabolites were identified in a single pooled sample per matrix and subject (urine pool of 4–120 h and feces pool of 0–192 h), that covered at least 90% of the total radioactivity of the respective matrix excreted. Intervals with low radioactivity were not used for the generation of the pooled samples to avoid dilution, and to increase the signal-to-noise ratio of the respective chromatograms.
The metabolite structure elucidation was performed using the linear trap quadrupole Orbitrap XL hybrid Fourier transform (FT) MS (Thermo Scientific, Dreieich, Germany) coupled to a Waters Acquity UPLC system. Full-scan FT spectra were acquired for measurement of the masses of molecular ions of parent and metabolites. MS^2 fragmentation spectra were acquired after high-energy collisional dissociation of the appropriate molecular ions. Allocation and confirmation of the proposed metabolites to the radioactive peaks were performed using an API4000 QTrap (AB Sciex, Darmstadt, Germany) MS with simultaneous splitting using a fraction collection system (CTC HTS PAL Fraction Collector, Axel Semrau, Sprockhövel, Germany), and offline radioactive measurement using a Topcount NXT® microplate scintillation counter (PerkinElmer, Rodgau, Germany).
The maximum plasma concentration (Cmax) and time to reach maximum concentration (tmax) were derived directly from the plasma concentration–time data. Lag time (tlag) was the time prior to the first measurable (non-zero) concentration. The area under the plasma concentration–time curve from 0 to t (last measurable concentration; AUC0–t) was calculated using a mixed log–linear trapezoidal method. Area under the plasma concentration–time curve until the last sampling time (AUCall), which corresponds to AUC0–240 h within the observation period, was used for metabolite calculations. Amounts excreted in urine, feces, and total (urine + feces) were calculated as the sum of amounts (concentration multiplied by volume) for each collection from time 0 to time t. The terminal rate constant (λz) was used to estimate the terminal half-life (t½) (ln 2/λz), and the area under the concentration–time curve from time 0 to infinity (AUC0–∞). Total body clearance (CL) and apparent body clearance (CL/f) were determined by dose/AUC0–∞, and total volume of distribution (Vz) and apparent volume of distribution (Vz/f) were calculated by dose/(AUC0–∞*λz) after IV and oral administration, respectively. Volume of distribution of the central compartment (Vc) was derived by dividing the dose by the initial drug plasma concentration after IV administration. Absolute bioavailability was calculated as F = (AUCoral/doseoral)/(AUCIV/doseIV) × 100. The ratios (%) AUCtepotinib or metabolite/AUCtotal radioactivity were calculated as a percentage of the molar AUCs.

Data set [2] is described as follows: Protein binding and blood cell affinity of M506. The format is in vitro ADME.

Take `CN1CCC(COc2cnc(-c3cccc(Cn4nc(-c5cccc(C#N)c5)ccc4=O)c3)nc2)CC1=O` (stereo not shown) [M506]: the half-life is 92 h in data set [1] (median) and 66 to 145 h in data set [1] (range). Also, the “% of AUCall of total 14C-radioactivity in plasma” value in data set [1] (po) is reported as 41%. In addition, the tmax in data set [1] (po, median) is 24 h; in data set [1] (po, range), 24 to 60 h. In addition, in data set [2], the “affinity for blood cells” value was “low affinity for blood cells”. Further, in data set [2], the protein binding result is listed as “highly protein-bound”.

Broadly, the half-life is the time in which the quantity being followed falls by half.
